Experimental data published in patent US20250034216A1, “STEREOSELECTIVE COVALENT LIGANDS FOR ONCOGENIC AND IMMUNOLOGICAL PROTEINS” (The Scripps Research Institute, priority 2021, published 2025).

Tests used:
GNPAT_C54 = biological target: T1, GNPAT_C54 (Homo sapiens, UniProt O15228); test: IA-DTB cysteine engagement; assay type: binding; settings: 22Rv1 cells, relative to DMSO; for % engagement GNPAT_54: 5 μM probe, 1 h (FIG. 5B); for % engagement GNPAT_C54: 20 μM probe, 1 h
T1 construct: endogenous in cells; host or cells: 22Rv1
T1 sequence (O15228 1-680): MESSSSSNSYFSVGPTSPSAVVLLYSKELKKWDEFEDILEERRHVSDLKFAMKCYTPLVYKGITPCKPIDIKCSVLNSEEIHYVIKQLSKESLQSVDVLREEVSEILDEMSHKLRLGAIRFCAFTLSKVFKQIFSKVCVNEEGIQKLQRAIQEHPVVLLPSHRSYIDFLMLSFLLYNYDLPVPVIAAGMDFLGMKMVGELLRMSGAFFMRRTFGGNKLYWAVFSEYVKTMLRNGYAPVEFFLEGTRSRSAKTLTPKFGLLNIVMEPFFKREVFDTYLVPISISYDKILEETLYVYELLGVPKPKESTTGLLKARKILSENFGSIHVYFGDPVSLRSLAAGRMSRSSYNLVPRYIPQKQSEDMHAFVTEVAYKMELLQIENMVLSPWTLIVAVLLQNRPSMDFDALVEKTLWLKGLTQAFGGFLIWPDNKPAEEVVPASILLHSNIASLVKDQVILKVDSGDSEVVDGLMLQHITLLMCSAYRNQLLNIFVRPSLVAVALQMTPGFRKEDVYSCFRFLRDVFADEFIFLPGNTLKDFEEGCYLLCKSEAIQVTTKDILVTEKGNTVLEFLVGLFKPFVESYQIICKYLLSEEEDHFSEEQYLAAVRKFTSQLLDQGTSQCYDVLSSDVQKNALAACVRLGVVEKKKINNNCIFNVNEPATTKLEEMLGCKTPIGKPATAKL
Method in brief: (§1)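 Read-out is TMT-based cysteine engagement, expressed as each reporter ion intensity divided by the average of the DMSO channels. Before that, probe-treated cell lysates were capped with IA-DTB, digested, enriched on streptavidin and TMT-tagged. PSMs with DMSO summed intensity <10,000 or DMSO CV >0.5 were excluded.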

LMF2_C659 = biological target: T2, LMF2_C659 (Homo sapiens, UniProt Q9BU23); test: IA-DTB cysteine engagement; assay type: binding; settings: 22Rv1 cells, 20 μM probe, 1 h, relative to DMSO
T2 construct: endogenous in cells; host or cells: 22Rv1
T2 sequence (Q9BU23 1-707): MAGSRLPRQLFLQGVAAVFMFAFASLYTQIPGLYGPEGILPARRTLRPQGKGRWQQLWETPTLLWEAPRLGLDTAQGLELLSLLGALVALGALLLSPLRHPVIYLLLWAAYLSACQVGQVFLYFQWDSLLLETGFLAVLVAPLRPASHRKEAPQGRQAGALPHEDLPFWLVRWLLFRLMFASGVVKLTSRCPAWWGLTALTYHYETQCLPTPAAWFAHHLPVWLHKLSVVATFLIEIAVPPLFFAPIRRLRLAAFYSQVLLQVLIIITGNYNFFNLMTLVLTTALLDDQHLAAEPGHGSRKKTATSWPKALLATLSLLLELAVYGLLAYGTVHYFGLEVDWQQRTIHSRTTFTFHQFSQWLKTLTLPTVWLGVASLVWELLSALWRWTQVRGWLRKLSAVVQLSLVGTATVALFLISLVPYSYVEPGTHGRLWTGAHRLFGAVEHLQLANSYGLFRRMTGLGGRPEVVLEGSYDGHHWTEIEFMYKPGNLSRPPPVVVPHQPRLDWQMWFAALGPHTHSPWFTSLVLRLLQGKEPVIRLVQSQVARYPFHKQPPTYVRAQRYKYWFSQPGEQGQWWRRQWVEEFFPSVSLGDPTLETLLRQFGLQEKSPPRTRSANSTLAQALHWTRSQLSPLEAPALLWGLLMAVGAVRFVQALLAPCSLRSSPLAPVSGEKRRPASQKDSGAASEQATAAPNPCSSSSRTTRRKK
Method in brief: as §1

Compound | % engagement GNPAT_54 (GNPAT_C54) [%] | % engagement GNPAT_C54 (GNPAT_C54) [%] | % engagement LMF2_C659 (LMF2_C659) [%]
CC#CC(=O)N1C[C@H](c2ccc(Br)cc2)[C@@H]1C(=O)Nc1cccc2cccnc12 [MY-45B, (2R,3S)-3-(4-bromophenyl)-1-(but-2-ynoyl)-N-(quinolin-8-yl)azetidine-2-carboxamide] | 51.83 |  | 
C=CC(=O)N1C[C@H](c2ccc(Br)cc2)[C@H]1C(=O)Nc1cccc2cccnc12 [MY-3A, (2S,3S)-1-acryloyl-3-(4-bromophenyl)-N-(quinolin-8-yl)azetidine-2-carboxamide] |  | 54.25 | 44.75
C=CC(=O)N1C[C@@H](c2ccc(Br)cc2)[C@H]1C(=O)Nc1cccc2cccnc12 [MY-1A, (2S,3R)-1-acryloyl-3-(4-bromophenyl)-N-(quinolin-8-yl)azetidine-2-carboxamide] |  | 88.5 | 66
C=CC(=O)N1C[C@H](c2ccc(Br)cc2)[C@@H]1C(=O)Nc1cccc2cccnc12 [MY-1B, (2R,3S)-1-acryloyl-3-(4-bromophenyl)-N-(quinolin-8-yl)azetidine-2-carboxamide] | 73.17 | 91.5 | 65.75
C=CC(=O)N1C[C@H](c2ccc(Br)cc2)[C@H]1C(=O)Nc1cccc2cccnc12 [MY-3B, (2S,3S)-1-acryloyl-3-(4-bromophenyl)-N-(quinolin-8-yl)azetidine-2-carboxamide] |  | 77.5 | 69.25
